Columns and labels:
Plk1 [1] = molecular target: T1, Plk1 (Homo sapiens, UniProt P53350); conditions: read-out: Reported Plk1 IC50 values; cited from earlier work
Plk1 [2] = molecular target: T1, Plk1; assay: fluorescence recovery assay, probe binding as a function of Plk1 concentration
full-length Plk1 = full-length Plk1 (Homo sapiens, UniProt P53350); assay: fluorescence recovery assay, competition of inhibitors with probe 4; type: binding
full-length Plk1, sequence (P53350 whole entry): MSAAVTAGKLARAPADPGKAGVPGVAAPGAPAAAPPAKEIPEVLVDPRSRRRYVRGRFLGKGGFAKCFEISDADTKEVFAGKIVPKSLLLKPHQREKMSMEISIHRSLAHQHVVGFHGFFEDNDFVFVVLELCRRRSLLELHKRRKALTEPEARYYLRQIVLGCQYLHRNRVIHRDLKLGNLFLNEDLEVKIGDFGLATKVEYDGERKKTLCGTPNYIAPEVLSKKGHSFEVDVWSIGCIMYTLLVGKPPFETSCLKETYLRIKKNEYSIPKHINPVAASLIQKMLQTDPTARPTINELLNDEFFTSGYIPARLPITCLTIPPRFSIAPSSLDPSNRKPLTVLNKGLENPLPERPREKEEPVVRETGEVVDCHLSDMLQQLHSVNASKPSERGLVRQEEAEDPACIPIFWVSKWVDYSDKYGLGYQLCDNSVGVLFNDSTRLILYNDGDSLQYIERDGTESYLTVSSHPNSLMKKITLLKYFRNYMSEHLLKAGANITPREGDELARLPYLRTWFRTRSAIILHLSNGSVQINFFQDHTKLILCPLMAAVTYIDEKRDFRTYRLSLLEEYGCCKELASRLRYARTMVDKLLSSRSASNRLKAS

T1 sequence (P53350 whole entry): as above

## SBE13
Plk1 [1]
  IC50: 0.2 nM

## FITC-PEG-Lys(BI2536) [compound 4]
Plk1 [2]; 10 nM of probe 4
  Kd: 32 ± 0.78 nM
Plk1 [2]; 20 nM of probe 4
  Kd: 33 ± 0.98 nM
Plk1 [2]; 30 nM of probe 4
  Kd: 32 ± 1.1 nM
Plk1 [2]; 40 nM of probe 4
  Kd: 38 ± 1.8 nM
Plk1 [2]; incubation time 15 minutes
  Kd: 42 ± 1.5 nM
Plk1 [2]; incubation time 30 minutes
  Kd: 34 ± 1.1 nM
Plk1 [2]; incubation time 60 minutes
  Kd: 32 ± 1.5 nM

## CC[C@@H]1C(=O)N(C)c2cnc(Nc3ccc(C(=O)N[C@H]4CC[C@H](N5CCN(CC6CC6)CC5)CC4)cc3OC)nc2N1C(C)C [BI6727]
full-length Plk1
  IC50: 31 ± 0.67 nM
